Several values for one entry are separate records, joined by “and”; a condition that tells them apart may be missing. Equal entries are not always repeated. Inconclusive results and toxic doses are left out.
Tested on: nude mice, LOX melanoma ip, survival T/C
Assay: NCI In Vivo Anticancer Drug Screen. Data for tumor model Human Amelanotic Melanoma (LOX) (intraperitoneal) in NU/NU BALB/C (nude) mice
Details: endpoint: median survival time, higher = longer survival
Protocol: The antitumor activity of compounds was measured in mice bearing transplantable tumors. Survival or tumor size were measured and the results are expressed as the measurement made in the treated group (T) divided by the measurement made in the vehicle treated control group (C). The tumor model used in this assay is Human Amelanotic Melanoma (LOX) (intraperitoneal) in NU/NU BALB/C (nude) mice

[1] = dose: 12.5 mg/kg/injection, schedule: Q04DX003 (ip), vehicle: saline with Tween-80
[2] = dose: 25.0 mg/kg/injection, schedule: Q04DX003 (ip), vehicle: saline with Tween-80
[3] = dose: 50.0 mg/kg/injection, schedule: Q04DX003 (ip), vehicle: saline with Tween-80
[4] = dose: 100.0 mg/kg/injection, schedule: Q04DX003 (ip), vehicle: saline with Tween-80

Cc1cc2c(=O)cc(-c3ccccc3)oc2c(C(=O)O)c1C
T/C (dose: 62.5 mg/kg/injection, schedule: Q04DX003 (ip), vehicle: saline with Tween-80): 95 % of control | T/C (dose: 125.0 mg/kg/injection, schedule: Q04DX003 (ip), vehicle: saline with Tween-80): 94 % of control | T/C (dose: 250.0 mg/kg/injection, schedule: Q04DX003 (ip), vehicle: saline with Tween-80): 90 % of control

CN1CCN(CN2C(=O)C3C4C=CC(C3C2=O)C2C3C(=O)N(CN5CCN(C)CC5)C(=O)C3C42)CC1 (stereo not drawn)
T/C (dose: 12.5 mg/kg/injection, schedule: Q04DX003 (ip), vehicle: water): 104 % of control | T/C (dose: 25.0 mg/kg/injection, schedule: Q04DX003 (ip), vehicle: water): 109 % of control | T/C (dose: 50.0 mg/kg/injection, schedule: Q04DX003 (ip), vehicle: water): 110 % of control | T/C (dose: 100.0 mg/kg/injection, schedule: Q04DX003 (ip), vehicle: water): 106 % of control

CN(C)CN1C(=O)S/C(=C2\C(=O)N(CN(C)C)c3ccccc32)C1=O
T/C (dose: 50.0 mg/kg/injection, schedule: Q04DX003 (ip), vehicle: Klucel (hydroxypropylcellulose) (HPC)): 119 % of control and 101 % of control | T/C (dose: 100.0 mg/kg/injection, schedule: Q04DX003 (ip), vehicle: Klucel (hydroxypropylcellulose) (HPC)): 110 % of control and 97 % of control | T/C (dose: 200.0 mg/kg/injection, schedule: Q04DX003 (ip), vehicle: Klucel (hydroxypropylcellulose) (HPC)): 108 % of control and 97 % of control

CCN(CC)CC(=O)O[C@]1(CC)C(=O)OCc2c1cc1n(c2=O)Cc2cc3ccccc3nc2-1
T/C (dose: 18.75 mg/kg/injection, schedule: Q04DX003 (ip), vehicle: water): 239 % of control

CN(C)C(=O)Nc1ccc(Cl)cc1
T/C (dose: 75.0 mg/kg/injection, schedule: Q04DX003 (ip), vehicle: suspension in saline): 118 % of control | T/C (dose: 150.0 mg/kg/injection, schedule: Q04DX003 (ip), vehicle: suspension in saline): 102 % of control | T/C (dose: 300.0 mg/kg/injection, schedule: Q04DX003 (ip), vehicle: suspension in saline): 102 % of control | T/C (dose: 600.0 mg/kg/injection, schedule: Q04DX003 (ip), vehicle: suspension in saline): 102 % of control

NC(N)=NS(=O)(=O)c1ccc(NCc2c3ccccc3nc3ccccc23)cc1
T/C (dose: 600.0 mg/kg/injection, schedule: Q04DX003 (ip), vehicle: Klucel (hydroxypropylcellulose) (HPC)): 166 % of control | T/C (dose: 1200.0 mg/kg/injection, schedule: Q04DX003 (ip), vehicle: Klucel (hydroxypropylcellulose) (HPC)): 155 % of control

Cc1ccc(C(=Nc2ccccc2)N=P(c2ccccc2)(c2ccccc2)c2ccccc2)cc1
T/C [1]: 106 % of control | T/C [2]: 115 % of control | T/C [3]: 119 % of control | T/C [4]: 104 % of control

[Na+]
T/C (dose: 75.0 mg/kg/injection, schedule: Q04DX003 (ip), vehicle: water): 104 % of control | T/C (dose: 150.0 mg/kg/injection, schedule: Q04DX003 (ip), vehicle: water): 95 % of control | T/C (dose: 300.0 mg/kg/injection, schedule: Q04DX003 (ip), vehicle: water): 108 % of control | T/C (dose: 1200.0 mg/kg/injection, schedule: Q04DX003 (ip), vehicle: water): 99 % of control

COc1cccc2c1[C@H]1CO[C@H]3C4C[C@H](C(=O)O)C([C@@H](C2)N13)N4C (stereo partly drawn)
T/C (dose: 0.62 mg/kg/injection, schedule: Q04DX003 (ip), vehicle: water): 121 % of control | T/C (dose: 1.25 mg/kg/injection, schedule: Q04DX003 (ip), vehicle: water): 121 % of control | T/C (dose: 5.0 mg/kg/injection, schedule: Q04DX003 (ip), vehicle: water): 196 % of control | T/C (dose: 10.0 mg/kg/injection, schedule: Q04DX003 (ip), vehicle: water): 152 % of control | T/C (dose: 20.0 mg/kg/injection, schedule: Q04DX003 (ip), vehicle: water): 177 % of control

CN(C)CCCN=c1c2ccccc2n(C)c2[nH]c(=O)n(C)c(=O)c12
T/C (dose: 12.5 mg/kg/injection, schedule: Q04DX003 (ip), vehicle: saline): 112 % of control | T/C (dose: 50.0 mg/kg/injection, schedule: Q04DX003 (ip), vehicle: saline): 107 % of control

O=NN(CCCl)C(=O)NCCCl
T/C (dose: 1.88 mg/kg/injection, schedule: Q01DX005 (ip), vehicle: saline + alcohol): 122 % of control | T/C (dose: 2.5 mg/kg/injection, schedule: Q01DX015 (ip), vehicle: saline + alcohol): 185 % of control | T/C (dose: 3.75 mg/kg/injection, schedule: Q01DX005 (ip), vehicle: saline + alcohol): 163 % of control | T/C (dose: 5.0 mg/kg/injection, schedule: Q01DX001 (ip), vehicle: saline + alcohol): 117 % of control | T/C (dose: 5.0 mg/kg/injection, schedule: Q01DX015 (ip), vehicle: saline + alcohol): 193 % of control | T/C (dose: 7.5 mg/kg/injection, schedule: Q01DX005 (ip), vehicle: saline + alcohol): 218 % of control | T/C (dose: 10.0 mg/kg/injection, schedule: Q04DX003 (ip), vehicle: saline + alcohol): 185 % of control | T/C (dose: 12.0 mg/kg/injection, schedule: Q04DX003 (ip), vehicle: saline + alcohol): 118 % of control | T/C (dose: 12.0 mg/kg/injection, schedule: Q04DX003 (iv), vehicle: saline + alcohol): 220 % of control | T/C (dose: 15.0 mg/kg/injection, schedule: Q01DX005 (ip), vehicle: saline + alcohol): 191 % of control | T/C (dose: 18.0 mg/kg/injection, schedule: Q04DX003 (ip), vehicle: saline + alcohol): 116 % of control | T/C (dose: 18.0 mg/kg/injection, schedule: Q04DX003 (iv), vehicle: saline + alcohol): 331 % of control | T/C (dose: 20.0 mg/kg/injection, schedule: Q01DX001 (ip), vehicle: saline + alcohol): 177 % of control | T/C (dose: 20.0 mg/kg/injection, schedule: Q04DX003 (ip), vehicle: saline + alcohol): 175 % of control | T/C (dose: 27.0 mg/kg/injection, schedule: Q04DX003 (ip), vehicle: saline + alcohol): 116 % of control | T/C (dose: 27.0 mg/kg/injection, schedule: Q04DX003 (iv), vehicle: saline + alcohol): 331 % of control | T/C (dose: 40.0 mg/kg/injection, schedule: Q01DX001 (ip), vehicle: saline + alcohol): 171 % of control | T/C (dose: 40.0 mg/kg/injection, schedule: Q04DX003 (ip), vehicle: saline + alcohol): 218 % of control | T/C (dose: 80.0 mg/kg/injection, schedule: Q01DX001 (ip), vehicle: saline + alcohol): 196 % of control

CN=C(N)N/N=C(\C)c1ccc2sc3ccc(/C(C)=N/NC(N)=NC)cc3c2c1
T/C (dose: 37.5 mg/kg/injection, schedule: Q04DX003 (ip), vehicle: saline with Tween-80): 121 % of control | T/C (dose: 75.0 mg/kg/injection, schedule: Q04DX003 (ip), vehicle: saline with Tween-80): 117 % of control | T/C (dose: 300.0 mg/kg/injection, schedule: Q04DX003 (ip), vehicle: saline with Tween-80): 182 % of control | T/C (dose: 600.0 mg/kg/injection, schedule: Q04DX003 (ip), vehicle: saline with Tween-80): 116 % of control

O=C(Nc1cccc(O)c1)C(Cl)=C(Cl)Cl
T/C (dose: 6.25 mg/kg/injection, schedule: Q04DX003 (ip), vehicle: DMSO): 96 % of control | T/C (dose: 12.5 mg/kg/injection, schedule: Q04DX003 (ip), vehicle: DMSO): 91 % of control | T/C (dose: 25.0 mg/kg/injection, schedule: Q04DX003 (ip), vehicle: DMSO): 95 % of control | T/C (dose: 50.0 mg/kg/injection, schedule: Q04DX003 (ip), vehicle: DMSO): 94 % of control

O=C(Oc1ccccc1)c1cc(O)c(O)c(O)c1
T/C (dose: 37.5 mg/kg/injection, schedule: Q04DX003 (ip), vehicle: saline): 157 % of control | T/C (dose: 75.0 mg/kg/injection, schedule: Q04DX003 (ip), vehicle: saline): 99 % of control | T/C (dose: 150.0 mg/kg/injection, schedule: Q04DX003 (ip), vehicle: saline): 152 % of control | T/C (dose: 300.0 mg/kg/injection, schedule: Q04DX003 (ip), vehicle: saline): 88 % of control | T/C (dose: 600.0 mg/kg/injection, schedule: Q04DX003 (ip), vehicle: saline): 94 % of control

CC1c2ccccc2CC(CCN(C)C)c2ccccc21 (stereo not drawn)
T/C [1]: 109 % of control | T/C [2]: 114 % of control | T/C [3]: 114 % of control | T/C [4]: 109 % of control
